According to patent US20250144067A1, “PERSONALIZED STARVATION THERAPY FOR CANCER” (Faeth Therapeutics, Inc., priority 2021, published 2025):
Counter-ions that a name gives are not always drawn. Like-named read-outs stand apart in the source and are kept apart here.

What was measured:
[1] = tested on: NCI-H292 lung cancer cells; test: FDA drug screening, complete media vs cholesterol-free media without statin (TABLE 1); assay type: cell-based, human
[2] = tested on: NCI-H292 lung cancer cells; test: FDA drug screening, complete media vs cholesterol-free media with simvastatin (TABLE 2); assay type: cell-based, human
[3] = Complete minus Cholesterol-free, >0 enhanced anti-cancer activity, about 0 neutral, <0 antagonist
[4] = NCI-H292 cells, cholesterol-free media without statin, FDA drug library screen
[5] = NCI-H292 cells, complete media, FDA drug library screen
[6] = complete media minus cholesterol-free media + simvastatin, >0 enhanced anti-cancer activity, about 0 neutral, <0 antagonist
[7] = Complete minus Cholesterol-free, greater than 0 enhanced anti-cancer activity, about 0 neutral, below 0 antagonists
[8] = NCI-H292 cells in cholesterol-free media without statin
[9] = NCI-H292 cells in complete media
[10] = NCI-H292 cells, FDA library drug in cholesterol-free media with simvastatin 0.04 μM
[11] = NCI-H292 cells, FDA library drug in complete media
[12] = complete media vs cholesterol-free media + simvastatin (0.04 μM), >0 enhanced anti-cancer activity, about 0 neutral, <0 antagonist
[13] = Complete minus Cholesterol-free, […]
[14] = NCI-H292 cells, FDA drug library screen, cholesterol-free media without statin
[15] = NCI-H292 cells, FDA drug library screen, complete media
[16] = complete media vs cholesterol-free media + simvastatin (0.04 μM), […]
[17] = NCI-H292 cells, cholesterol-free media without statin
[18] = complete vs cholesterol-free media, >0 enhanced anti-cancer activity, about 0 neutral, <0 antagonist
[19] = NCI-H292 cells, FDA drug library screen, cholesterol-free media with simvastatin 0.04 μM
[20] = NCI-H292 cells, drug in cholesterol-free media with simvastatin 0.04 μM
[21] = NCI-H292 cells, drug in complete media
[22] = complete vs cholesterol-free media, greater than 0 enhanced anti-cancer activity, about 0 neutral, below 0 antagonists
[23] = Complete minus Cholesterol-free, greater than 0 enhanced anti-cancer activity, about 0 neutral, below 0 antagonist

Compound: N[C@@H](Cc1cc(I)c(Oc2cc(I)c(O)c(I)c2)c(I)c1)C(=O)O.[Na] [L-Thyroxine (sodium)]
- Difference [1, 3]: −0.07
- Cholesterol-free [1, 4]: 1.137
- Complete [1, 5]: 1.071
- Cholesterol-free media + simvastatin (0.04 μM) ([2]; NCI-H292 cells, cholesterol-free media with simvastatin 0.04 μM, cell growth value in FDA drug screen): 0.8676
- Complete Media ([2]; NCI-H292 cells, complete media, cell growth value in FDA drug screen): 0.8889
- Difference [2, 6]: 0.02

Compound: Clc1cccc(Cl)c1N=C1NCCN1 [Clonidine]
- Difference [1, 7]: −0.63
- Cholesterol-free [1, 8]: 1.46
- Complete [1, 9]: 0.8249
- Cholesterol-free media + simvastatin (0.04 μM) [2, 10]: 1.26
- Complete Media [2, 11]: 0.9157
- Difference [2, 12]: −0.34

Compound: CCC(=O)Oc1ccc2c(c1)CC[C@@H]1[C@@H]2CC[C@]2(C)[C@@H](OC(=O)CC)CC[C@@H]12 [Estradiol dipropionate]
- Difference [1, 13]: −0.07
- Cholesterol-free [1, 14]: 0.9963
- Complete [1, 15]: 0.9247
- Cholesterol-free media + simvastatin (0.04 μM) [2, 10]: 1.891
- Complete Media [2, 11]: 1.522
- Difference [2, 16]: −0.37

Compound: (−)-Sparteine (sulfate pentahydrate)
- Cholesterol-free [1, 17]: 1.28
- Complete ([1]; NCI-H292 cells, complete media): 0.8579
- Difference ([1]; complete vs cholesterol-free media, […]): −0.42
- Cholesterol-free media + simvastatin (0.04 μM) ([2]; NCI-H292 cells, cholesterol-free media with simvastatin 0.04 μM, […]): 0.83
- Complete Media ([2]; NCI-H292 cells, complete media, […]): 0.9345
- Difference ([2]; complete media minus cholesterol-free media + simvastatin, […]): 0.10

Compound: CCCCCCCCCC(=O)OCCN1CCN(CCCN2c3ccccc3Sc3ccc(C(F)(F)F)cc32)CC1 [Fluphenazine decanoate]
- Cholesterol-free [1, 4]: 0.4638
- Complete [1, 5]: 1.069
- Difference [1, 18]: 0.60
- Cholesterol-free media + simvastatin (0.04 μM) [2, 19]: 0.7434
- Complete Media [2, 15]: 0.9759
- Difference [2, 6]: 0.23

Compound: CN(C)[C@@H]1C(O)=C(C(N)=O)C(=O)[C@@]2(O)C(O)=C3C(=O)c4c(O)cccc4[C@@](C)(O)[C@H]3[C@H](O)[C@@H]12 [Oxytetracycline]
- Cholesterol-free [1, 4]: 0.9301
- Complete [1, 5]: 1.086
- Difference [1, 18]: 0.16
- Cholesterol-free media + simvastatin (0.04 μM) [2, 10]: 2.284
- Complete Media [2, 11]: 1.447
- Difference [2, 12]: −0.84

Compound: CCc1nn(CCCN2CCN(c3cccc(Cl)c3)CC2)c(=O)n1CCOc1ccccc1 [Nefazodone (hydrochloride)]
- Cholesterol-free [1, 4]: 0.8256
- Complete [1, 5]: 1.655
- Difference [1, 18]: 0.83
- Cholesterol-free media + simvastatin (0.04 μM) [2, 10]: 1.025
- Complete Media [2, 11]: 0.2752
- Difference [2, 12]: −0.75

Compound: C[C@H](CCC(=O)O)[C@H]1CC[C@H]2[C@@H]3CC[C@@H]4C[C@H](O)CC[C@]4(C)[C@H]3C[C@H](O)[C@]12C [Deoxycholic acid sodium salt]
- Cholesterol-free [1, 4]: 0.8045
- Complete [1, 5]: 0.9543
- Difference [1, 18]: 0.15
- Cholesterol-free media + simvastatin (0.04 μM) [2, 20]: 0.8739
- Complete Media [2, 21]: 0.7063
- Difference [2, 12]: −0.17

Compound: CCOc1nc2cccc(C(=O)OCc3oc(=O)oc3C)c2n1Cc1ccc(-c2ccccc2-c2noc(=O)[nH]2)cc1 [Azilsartan medoxomil]
- Difference [1, 7]: −0.49
- Cholesterol-free [1, 8]: 1.119
- Complete [1, 9]: 0.6328
- Cholesterol-free media + simvastatin (0.04 μM) [2, 19]: 1.394
- Complete Media [2, 15]: 1.269
- Difference [2, 12]: −0.12

Compound: Cc1ncc([N+](=O)[O-])n1CC(O)CN1CCOCC1 (stereo not drawn) [Morinidazole (R enantiomer)]
- Difference [1, 3]: −0.04
- Cholesterol-free [1, 4]: 1.104
- Complete [1, 5]: 1.064
- Cholesterol-free media + simvastatin (0.04 μM) [2, 19]: 1.178
- Complete Media [2, 15]: 1.022
- Difference [2, 12]: −0.16

Compound: c1cnc(N2CCN(Cc3ccc4c(c3)OCO4)CC2)nc1 [Piribedil]
- Cholesterol-free [1, 4]: 0.8521
- Complete [1, 5]: 1.367
- Difference [1, 18]: 0.51
- Cholesterol-free media + simvastatin (0.04 μM) [2, 20]: 1.189
- Complete Media [2, 21]: 0.9878
- Difference [2, 12]: −0.20

Compound: Cc1ccc(NC(=O)C2(c3ccc4c(c3)OC(F)(F)O4)CC2)nc1-c1cccc(C(=O)O)c1 [Lumacaftor]
- Difference [1, 3]: −0.19
- Cholesterol-free [1, 17]: 1.044
- Complete ([1]; NCI-H292 cells, complete media): 0.854
- Cholesterol-free media + simvastatin (0.04 μM) [2, 20]: 1.744
- Complete Media [2, 21]: 1.539
- Difference [2, 12]: −0.20

Compound: Cc1nc2n(c(=O)c1CCN1CCC(c3noc4cc(F)ccc34)CC1)CCCC2 [Risperidone]
- Cholesterol-free [1]: 1.099
- Complete [1]: 0.9616
- Difference [1]: −0.14
- Cholesterol-free media + simvastatin (0.04 μM) [2]: 0.9957
- Difference [2]: 0.16

Compound: CN1C(C(=O)Nc2ccccn2)=C(O)c2sc(Cl)cc2S1(=O)=O [Lornoxicam]
- Cholesterol-free [1, 17]: 1.174
- Complete ([1]; NCI-H292 cells, complete media): 0.811
- Difference [1, 22]: −0.36
- Cholesterol-free media + simvastatin (0.04 μM) [2, 19]: 1.072
- Complete Media [2, 15]: 0.9888
- Difference [2, 12]: −0.08

Compound: CC(=O)[C@H]1CC[C@H]2[C@@H]3CC=C4C[C@@H](O)CC[C@]4(C)[C@H]3CC[C@]12C [Pregnenolone]
- Difference [1, 13]: −0.56
- Cholesterol-free [1, 8]: 1.529
- Complete [1, 9]: 0.9655
- Cholesterol-free media + simvastatin (0.04 μM) [2, 10]: 1.424
- Complete Media [2, 11]: 0.9118
- Difference [2, 16]: −0.51

Compound: O=C(O)/C=C/c1ccc(Cn2ccnc2)cc1 [Ozagrel]
- Difference [1, 3]: −0.04
- Cholesterol-free [1, 4]: 1.079
- Complete [1, 5]: 1.034
- Cholesterol-free media + simvastatin (0.04 μM) [2, 19]: 1.504
- Complete Media [2, 15]: 1.942
- Difference [2, 6]: 0.44

Compound: Orphenadrine (citrate)
- Difference [1, 23]: −0.10
- Cholesterol-free [1, 14]: 0.8697
- Complete [1, 15]: 0.768
- Complete Media [2, 15]: 1.525
- Difference [2, 6]: 0.38

Compound: NC[C@H]1CC[C@H](C(=O)O)CC1 [Tranexamic acid]
- Difference [1, 7]: −0.77
- Cholesterol-free [1, 8]: 2.288
- Complete [1, 9]: 1.522
- Cholesterol-free media + simvastatin (0.04 μM) [2, 20]: 1.894
- Complete Media [2, 21]: 1.678
- Difference [2, 12]: −0.22

Compound: Cl.NCC(O)c1ccc(O)c(O)c1 (racemic) [DL-Norepinephrine (hydrochloride)]
- Cholesterol-free [1, 4]: 1.105
- Complete [1, 5]: 1.652
- Difference [1, 18]: 0.55
- Cholesterol-free media + simvastatin (0.04 μM) [2, 10]: 0.9652
- Complete Media [2, 11]: 0.176
- Difference [2, 12]: −0.79

Compound: Cc1ccc(Nc2nccc(N(C)c3ccc4c(C)n(C)nc4c3)n2)cc1S(N)(=O)=O [Pazopanib (Hydrochloride)]
- Difference [1, 23]: −0.12
- Cholesterol-free [1, 14]: 1.089
- Complete [1, 15]: 0.9723
- Cholesterol-free media + simvastatin (0.04 μM) [2, 19]: 0.5325
- Complete Media [2, 15]: 1.206
- Difference [2, 6]: 0.67

Compound: CC(NCCc1ccc(O)cc1)C(O)c1ccc(O)cc1 (stereo not drawn) [Ritodrine (hydrochloride)]
- Cholesterol-free [1, 17]: 1.435
- Complete ([1]; NCI-H292 cells, complete media): 0.972
- Difference [1, 22]: −0.46
- Cholesterol-free media + simvastatin (0.04 μM) [2, 19]: 1.064
- Complete Media [2, 15]: 0.9618
- Difference [2, 12]: −0.10

Compound: Terbutaline (sulfate)
- Difference [1, 3]: −0.29
- Cholesterol-free [1, 17]: 1.263
- Complete ([1]; NCI-H292 cells, complete media): 0.9738
- Cholesterol-free media + simvastatin (0.04 μM) [2, 19]: 1.189
- Difference [2, 12]: −0.15

Compound: O=c1[nH]cc(F)c(=O)[nH]1 [5-Fluorouracil]
- Difference [1, 23]: −0.13
- Cholesterol-free [1, 14]: 0.4728
- Complete [1, 15]: 0.3401
- Cholesterol-free media + simvastatin (0.04 μM) [2, 10]: 0.7934
- Complete Media [2, 11]: 0.5204
- Difference [2, 12]: −0.27

Compound: Cc1ccc(C(=O)Nc2ccc(CN3CCN(C)CC3)c(C(F)(F)F)c2)cc1C#Cc1cnc2cccnn12 [Ponatinib]
- Cholesterol-free [1]: 0.1141
- Complete [1]: 0.07529
- Difference [1]: −0.04
- Cholesterol-free media + simvastatin (0.04 μM) [2]: 0.4683
- Complete Media [2]: 0.4064
- Difference [2]: −0.06

Compound: CN1CCC(=C2c3ccccc3CCc3sccc32)CC1 [Pizotifen]
- Cholesterol-free [1, 17]: 1.127
- Complete ([1]; NCI-H292 cells, complete media): 0.7811
- Difference [1, 22]: −0.35
- Cholesterol-free media + simvastatin (0.04 μM) [2, 19]: 0.849
- Complete Media [2, 15]: 1.216
- Difference [2, 6]: 0.37

Compound: Cc1nnc(C(=O)NC(C)(C)c2nc(C(=O)NCc3ccc(F)cc3)c(O)c(=O)n2C)o1 [Raltegravir (potassium salt)]
- Cholesterol-free [1]: 1.332
- Complete [1]: 0.9188
- Difference [1]: −0.41
- Cholesterol-free media + simvastatin (0.04 μM) [2]: 0.8687
- Complete Media [2]: 0.9051
- Difference [2]: 0.04

Compound: Cc1cn([C@H]2C[C@H](N=[N+]=[N-])[C@@H](CO)O2)c(=O)[nH]c1=O [Zidovudine]
- Difference [1, 3]: −0.01
- Cholesterol-free [1, 4]: 1.211
- Complete [1, 5]: 1.205
- Cholesterol-free media + simvastatin (0.04 μM) [2, 10]: 1.856
- Complete Media [2, 11]: 1.268
- Difference [2, 12]: −0.59

Compound: CCN(CC)CC#CCOC(=O)C(O)(c1ccccc1)C1CCCCC1 (stereo not drawn) [Oxybutynin]
- Difference [1, 23]: −0.10
- Cholesterol-free [1, 14]: 1.075
- Complete [1, 15]: 0.9761
- Cholesterol-free media + simvastatin (0.04 μM) [2, 19]: 0.7436
- Complete Media [2, 15]: 1.133
- Difference [2, 6]: 0.39
